Results from article PMC6934184, “Selective DNA-PKcs inhibition extends the therapeutic index of localized radiotherapy and chemotherapy” (The Journal of Clinical Investigation, 2019).

Biological target: T1, ADRBK1 (GRK2) (Homo sapiens, UniProt P25098)
T1 construct: purchased Thermo Fisher Scientific (Life Technologies) SelectScreen
Experiment: SelectScreen Z'LYTE
Format: biochemical
In short: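 Percent values come from Thermo SelectScreen profiling of NU5455, combining activity and binding assays. CSF1R was run in Z'LYTE format at Km app ATP, and CAMK1 in Adapta format with ATP listed at 10.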

T1 sequence (P25098 whole entry): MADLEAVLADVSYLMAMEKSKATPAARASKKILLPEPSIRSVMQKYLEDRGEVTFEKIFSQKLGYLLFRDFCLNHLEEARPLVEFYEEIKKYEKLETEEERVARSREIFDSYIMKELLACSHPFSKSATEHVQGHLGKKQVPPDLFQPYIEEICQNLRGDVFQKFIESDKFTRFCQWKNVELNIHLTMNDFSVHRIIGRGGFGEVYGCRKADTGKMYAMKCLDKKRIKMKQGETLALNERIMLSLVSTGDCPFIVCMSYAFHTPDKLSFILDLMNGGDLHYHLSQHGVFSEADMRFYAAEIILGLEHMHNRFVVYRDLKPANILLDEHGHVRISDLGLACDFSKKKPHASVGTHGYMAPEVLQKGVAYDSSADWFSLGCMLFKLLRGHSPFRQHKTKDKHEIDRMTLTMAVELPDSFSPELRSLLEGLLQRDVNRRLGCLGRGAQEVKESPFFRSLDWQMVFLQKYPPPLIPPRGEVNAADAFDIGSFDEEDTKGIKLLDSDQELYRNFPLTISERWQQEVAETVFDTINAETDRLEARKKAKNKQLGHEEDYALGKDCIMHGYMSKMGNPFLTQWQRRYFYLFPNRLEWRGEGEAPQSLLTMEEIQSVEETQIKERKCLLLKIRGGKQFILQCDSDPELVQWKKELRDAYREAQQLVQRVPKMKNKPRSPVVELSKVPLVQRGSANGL

CN(C(=O)CN1CCOCC1)c1ccc2sc3c(-c4cccc5c(=O)cc(N6CC7CCC(C6)O7)oc45)cccc3c2c1 [NU5455]
inhibition at 1 µM: -2%
